Test results from patent publication US4228285A, “14-Hydroxy-6-oxamorphinans and 14-hydroxy-6-oxaisomorphinans” (priority 1979, dated 1980).
Like-named read-outs stand apart in the source and are kept apart here.

Assays:
[1] = assay type: in vivo; conditions: for agonist potency relative to butorphanol / agonist potency relative to morphine sulfate: mice; for agonist potency relative to butorphanol: vs butorphanol; for agonist potency relative to morphine sulfate: vs morphine sulfate
[2] = oxymorphone-induced Straub tail test (oxymorphone antagonist activity); assay type: in vivo; conditions: for antagonist potency relative to butorphanol, Straub tail test: vs butorphanol
Excerpt: (§1) Table 2 compares the oxymorphone and morphine antagonist activity of two of the preferred embodiments of this invention with the antagonist activity of butorphanol, in the standard oxymorphone-induced Straub tail test and the morphine antagonist rat tail flick test. In the Straub tail test, subcutaneously, BL-5951 and BL-5961 were about 5 times and about 1.6 times, respectively, as potent as butorphanol. Orally, they were about 55 times and about 1.7 times, respectively, as potent as butorphanol.

[3] = morphine antagonist rat tail flick test; assay type: in vivo; conditions: subcutaneous; for ED50: sc
Excerpt: as §1

[4] = assay type: in vivo; conditions: subcutaneous
[5] = oral, read-out: Antagonist Activity ED50, Oxymorphone-induced Straub Tail, PO
[6] = sc, subcutaneous, read-out: Antagonist Activity ED50, Oxymorphone-induced Straub Tail, SC

Row | SMILES | agonist potency relative to butorphanol ([1]; oral) | agonist potency relative to morphine sulfate ([1]; oral) | agonist potency relative to butorphanol ([1]; subcutaneous) | agonist potency relative to morphine sulfate ([1]; subcutaneous) | Agonist Activity ED50, Mice (PO) ([1]; oral) [mg/kg] | Agonist Activity ED50, Mice (SC) ([1]; subcutaneous) [mg/kg] | antagonist potency relative to butorphanol, Straub tail test ([2]; oral) | ED50 [2, 5] [mg/kg] | ED50 [2, 6] [mg/kg] | antagonist potency relative to butorphanol, Straub tail test ([2]; subcutaneous) | ED50 [3] [mg/kg] | antagonist potency relative to butorphanol, rat tail flick test (in words) ([3]; vs butorphanol) | agonist potency relative to butorphanol ([4]; rats, vs butorphanol) | agonist potency relative to morphine sulfate ([4]; rats, vs morphine sulfate) | Agonist Activity ED50, Rats (SC) [4] [mg/kg] | antagonist potency relative to butorphanol, rat tail flick test ([3]; vs butorphanol)
1 | Oc1ccc2c(c1)[C@]13CCN(CC4CCC4)[C@H](C2)[C@]1(O)CCOC3 (racemic) [BL-5961, 17-Cyclobutylmethyl-3,14β-dihydroxy-6-oxamorphinan] | about 2.5 times | about 1.4 times | about 1.4 times | about 7 times | 2.2 | 0.037 | about 1.7 times | ~32 | 0.61 | about 1.6 times | ~0.4 | about equipotent | about equipotent | about 4 times | 0.041 | 
2 | CN1CC[C@]23COC(C)(C)C[C@@]2(O)[C@H]1Cc1ccc(O)cc13 (racemic) [BL-6021, 3,14β-Dihydroxy-7,7,17-trimethyl-6-oxamorphinan] |  |  | about 1.4 times | about 7 times |  | 0.037 |  |  |  |  |  |  |  |  |  | 
3 | Oc1ccc2c(c1)[C@]13CCN(CC4CC4)[C@H](C2)[C@]1(O)CCOC3 (racemic) [BL-5951, 17-Cyclopropylmethyl-3,14β-dihydroxy-6-oxamorphinan] |  |  |  |  |  |  | about 55 times | ~1 | ~0.2 | about 5 times | ~0.09 |  |  |  |  | about 4.8 times
4 | Oc1ccc2c(c1)[C@@]13CCCC[C@@]1(O)[C@@H](C2)N(CC1CCC1)CC3 [butorphanol, reference compound] |  |  |  |  | 5.6 | 0.051 |  | 55 | 0.98 |  | 0.43 |  |  |  | 0.040 | 
